Read-outs that look alike come from different tables or passages of the source. Marks after values point to notes of the source that are not given here.
Legend:
Thy1.1 and Flt-3 = conditions: cirrhotic rats, 30 mg/kg, 3 times a week for 4 weeks; compared to untreated cirrhotic rats
Text: The cells, which regenerate to liver tissues, are known to originate from stem cells.

cirrhotic rats [1] = conditions: 3 times a week for 4 weeks, untreated approximately 56% of normal
Text: (§1) Sprague-Dawley rats that were 6 weeks old and 140-160 g were used in the examples below.
Cirrhosis is not only responsible for diminishing of a liver's function, but also for atrophy of the liver tissues. […] Since weight loss accompanies cirrhosis, in order to standardize the test results, the weight of the brain, which is normally not affected by cirrhosis, was used as the comparative weight to obtain the changes in the weights. The significance is indicated by ** p<0.01, compared to control and # p<0.05 compared to rats with cirrhosis.

rats with cirrhosis [2] = conditions: cirrhotic rats, 30 mg/kg, 3 times a week for 4 weeks; without oltipraz 48% after 4 weeks
Text: as §1
(§2) By continually administering rats with dimethylnitrosamine (DMN) 3 times a week for 4 weeks, test models of cirrhotic livers were achieved. At such time, the rats showing only indications of liver fibrosis were placed in a separate group from rats showing indications of cirrhosis, and the survival rates of rats with cirrhosis and rats with liver fibrosis were studied during the next 4 weeks.

rats with liver fibrosis [3] = conditions: 30 mg/kg 3 times a week
Text: as §1, §2

cirrhotic rats [4] = conditions: index 0-3, untreated 1.7
Text: as §1
Another representative clinical symptom of cirrhosis is the accumulation of ascites. […] The significance is indicated by ** p<0.01, compared to control and # p<0.05 compared to rats with cirrhosis.

C/EBP-β = conditions: rat hepatocytes, 30 μM for 6 hours
Protocol: Afterwards, to study whether oltipraz promotes translocation of C/EBP-β to the nucleus, rat hepatocytes were incubated with oltipraz at the concentration of 30 μM for 6 hours.

PCNA [5] = conditions: cirrhotic rats, 30 mg/kg, 3 times a week for 4 weeks; compared to cirrhotic rat without oltipraz
Protocol: PCNA immunochemical analysis is done with a specific antibody for PCNA (Santa Cruz Biotech). Analysis was carried out by indirect Avidin-Biotin-Alkaline-Phosphatase technique, according to the protocol provided by the manufacturer (InnoGenex). […] By using blocking serum, nonspecific antibody bindings were prevented. Then, in a humidified chamber, the slices were incubated with antibodies for 30 minutes at room temperature. After the incubation, Phosphate Buffered Saline (PBS) with 0.1% Tween-20 was used to rinse the slides. The slices were subjected to biotinylated 2nd antibodies and reacted for 5 minutes at 37° C. followed by additional reaction for 5 minutes at 37° C. with streptavidin-conjugated alkaline phosphatase added. Then, 5-bromo-4-chloro-3-indolyl-phosphate (BCIP) and nitro-blue-tetrazolium (NBT) were used as the phosphatase substrate to be incubated with the slices on the slide until proper colors became visible. Afterwards, the slices were again stained with nuclear fast red.

rats with cirrhosis [6] = conditions: 3 times a week for 4 weeks; for Fibrosis Scores / Knodell Scores: group with cirrhosis; for Fibrosis Scores: scale 0-4, untreated 3.8 ± 0.2; for Knodell Scores: untreated 14.0 ± 0.8
Text: as §1, §2
The histopathological effect of oltipraz on cirrhosis was studied.
(§3) The curative effect of oltipraz on liver cirrhosis was histopathologically determined through fibrosis scores taken after Masson's trichrome staining and through Knodell scores which show the portal inflammation and the extent of fibrosis of the liver (FIG. 2, Table 1).
(§4) Each value is represented by the average ± standard deviation. The number of animals used was 5 to 10. The significance of each group is determined by the paired Student's t-test. The significance is indicated by * p<0.05, ** p<0.01 compared to rats with cirrhosis or liver fibrosis. […] Degree of fibrosis 0=Normal, 1=Presence of weak fibrous tissue, 2=Presence of moderate fibrous tissue, 3=Presence of obvious fibrous tissue, 4=Evidence of severe fibrosis. Sum of values from periportal bridging (Greatest=10), intralobular cell loss (Greatest=4), portal inflammation (Greatest=4), and fibrosis (Greatest=4) yields the Knodell score.

C/EBP-β and C/EBP-α [7] = conditions: cirrhotic rats, 30 mg/kg, 3 times a week for 4 weeks
Protocol: With the importance of C/EBP in the regulation of liver regeneration in mind, the expression of C/EBP-β and C/EBP-α in oltipraz administered (30 mg/kg, 3 times a week for 4 weeks) cirrhotic rats were examined.

cirrhotic rats [8] = conditions: 30 mg/kg, 3 times a week for 4 weeks
Text: as §1
The left side of FIG. 4b is a photograph of liver tissue, obtained after administration of oltipraz to cirrhotic rats, taken following Masson's trichrome staining.

C/EBP = conditions: hepatocytes isolated from cirrhotic rats incubated with oltipraz
rats with cirrhosis [9] = conditions: for ALT in blood plasma / AST in blood plasma / Bilirubin in blood plasma / Cholesterol in blood plasma: group with cirrhosis; for ALT in blood plasma: untreated 138 ± 14, control 55 ± 4; for AST in blood plasma: untreated 275 ± 36, control 141 ± 18; for Bilirubin in blood plasma: untreated 2.7 ± 0.8, control 1.1 ± 0.1; for Cholesterol in blood plasma: untreated 152 ± 30, control 97 ± 6
Protocol: as §1
When the rats were administered with 15 mg/kg of oltipraz, 3 times a week for 4 weeks, the ALT and AST activity in the blood plasma was reduced, and when administered with 30 mg/kg, approximately 70% of the AST value lowered, showing a statistical significance (Table 2).
The amount of bilirubin in blood plasma is an indicator of the liver's capacity.
Each value is represented by the average ± standard deviation. The number of animals used was 8 to 11. The significance of each group is determined by the paired Student's t-test. The significance is indicated by * p<0.05, compared to control and # p<0.05 compared to rats with cirrhosis.

C/EBP-β and C/EBP-α [10] = conditions: primary cultured hepatocytes, 30 μM
c-Met = conditions: cirrhotic rats, 30 mg/kg, 3 times a week for 4 weeks; versus un-administered rats
Text: c-Met is a Hepatocyte Growth Factor (HGF) receptor, applicable in proliferation and differentiation of the liver cells. […] When c-Met is not appropriately present, even with the presence of HGF, liver tissues will not form.

PCNA [11] = conditions: cirrhotic rats, 30 mg/kg, 3 times a week for 4 weeks; versus control or untreated cirrhotic rats
Protocol: Nuclear fractions of the liver from the control rats, cirrhotic rats and oltipraz administered (30 mg/kg, 3 times a week for 4 weeks) cirrhotic rats were dissolved in a diluting solution containing sodium dodecyl sulfate (SDS) to form a sample and stored at −70° C. After SDS-polyacrylamide gel electrophoresis, immunoblot analysis was carried out. The sample was fractionated by using 12% gel electrophoresis and electrically transferred to nitrocellulose membrane. The nitrocellulose membrane was incubated with polyclonal mouse anti-PCNA antibody (1:1000) (Santa Cruz Biotech) and then incubated again with horseradish peroxidase-conjugated secondary antibody. Lastly, ECL chemiluminescence kit manufactured by Amersham company was used to develop the band.

cirrhotic rats [12] = conditions: 30 mg/kg, 3 times a week for 4 weeks; remark: listed apart in the source
Text: as §1
Ascites are formed when the synthesis of the blood plasma protein (especially albumin) is reduced in the liver tissues, bringing a disturbance in maintaining the equilibrium of the osmotic pressure in the blood. […] The significance is indicated by ** p<0.01, compared to control and # p<0.05 compared to rats with cirrhosis.

rats with liver fibrosis [13] = conditions: group with fibrosis; for Fibrosis Scores: scale 0-4, untreated 2.2 ± 0.5; for Knodell Scores: untreated 6.0 ± 1.2
Text: as §1, §2, §3, §4

[14] = 15 mg/kg, 3 times a week for 4 weeks, 15 mg/kg
[15] = 15 mg/kg, 3 times a week for 4 weeks, listed as oltipraz, 15 mg/kg

Structure (SMILES): Cc1c(-c2cnccn2)ssc1=S [Oltipraz, 5-(2-pyrazinyl)-4-methyl-1,2-dithiol-3-thione]
- number of cells containing Thy1.1 and Flt-3 (Thy1.1 and Flt-3): considerable decline
- liver weights (cirrhotic rats [1]; 15 mg/kg): recovered almost to the normal weights
- liver weights (cirrhotic rats [1]; 30 mg/kg): recovered almost to the normal weights
- survival rate (rats with cirrhosis [2]): 83%
- death of rats (rats with liver fibrosis [3]): no death
- ascites formation index (cirrhotic rats [4]; 15 mg/kg): 0.9
- ascites formation index (cirrhotic rats [4]; 30 mg/kg): 0.4
- translocation of C/EBP-β to the nucleus (C/EBP-β): clearly promoted translocation
- occurrence of PCNA (cells with PCNA) (PCNA [5]): approximately twice more frequent
- accumulation of fibers in liver tissue (rats with cirrhosis [6]; cirrhotic rats, 15 or 30 mg/kg): reduced in a dose-dependent manner
- Fibrosis Scores (rats with cirrhosis [6]; 15 mg/kg): 2.9 ± 0.4
- Knodell Scores (rats with cirrhosis [6]; 15 mg/kg): 8.7 ± 1.1**
- Fibrosis Scores (rats with cirrhosis [6]; 30 mg/kg): 2.8 ± 1.1*
- Knodell Scores (rats with cirrhosis [6]; 30 mg/kg): 6.8 ± 2.5**
- appearance of liver-enriched inhibitory protein (LIP) (C/EBP-β and C/EBP-α [7]): almost completely disappeared
- expression of C/EBP-α (C/EBP-β and C/EBP-α [7]): noticeably recovered
- expression of C/EBP-β (C/EBP-β and C/EBP-α [7]): increased
- division of the liver cells (cirrhotic rats [8]): clearly shows the dividing cells
- amount of C/EBP in the nucleus (C/EBP): no significant change was observed
- total cholesterol level in blood plasma (rats with cirrhosis [9]; cirrhotic rats treated with oltipraz (dose not given)): did not show noticeable change
- AST value lowered (rats with cirrhosis [9]; cirrhotic rats, 30 mg/kg): approximately 70%
- amount of bilirubin in blood plasma (rats with cirrhosis [9]; cirrhotic rats, oltipraz administration (dose not given)): tended to be reduced
- ALT in blood plasma (rats with cirrhosis [9]; [14]): 124 ± 47
- ALT in blood plasma (rats with cirrhosis [9]; [15]): reduced
- AST in blood plasma (rats with cirrhosis [9]; [14]): 206 ± 24
- AST in blood plasma (rats with cirrhosis [9]; [15]): reduced
- Bilirubin in blood plasma (rats with cirrhosis [9]; 15 mg/kg): 1.8 ± 0.4
- Cholesterol in blood plasma (rats with cirrhosis [9]; 15 mg/kg): 116 ± 9
- Bilirubin in blood plasma (rats with cirrhosis [9]; 30 mg/kg): 1.4 ± 0.2
- ALT in blood plasma (rats with cirrhosis [9]; 30 mg/kg): 110 ± 39
- Cholesterol in blood plasma (rats with cirrhosis [9]; 30 mg/kg): 104 ± 7
- AST in blood plasma (rats with cirrhosis [9]; 30 mg/kg): 185 ± 22^#
- amount of C/EBP-α in the nucleus of the liver cells (C/EBP-β and C/EBP-α [10]): gradually increased
- amount of C/EBP-β in the nucleus of the liver cells (C/EBP-β and C/EBP-α [10]): gradually increased
- expression of c-Met (c-Met): noticeably greater
- expression of PCNA (36 kDa band intensity) (PCNA [11]): significant increase in the expression of PCNA
- amount of albumin in the blood plasma (cirrhotic rats [12]): normal albumin content was recovered
- Fibrosis Scores (rats with liver fibrosis [13]; 15 mg/kg): 2.8 ± 0.4
- Knodell Scores (rats with liver fibrosis [13]; 15 mg/kg): 7.0 ± 1.2
- Fibrosis Scores (rats with liver fibrosis [13]; 30 mg/kg): 1.0 ± 0.0**
- Knodell Scores (rats with liver fibrosis [13]; 30 mg/kg): 2.6 ± 0.4*

— patent publication US20030171382A1, “Pharmaceutical composition for regeneration of cirrhotic liver” (priority 2002, published 2003)
